Data taken from US8802597B2, “Herbicidal pyrimidines” (E I du Pont de Nemours and Company, priority 2003, dated 2014).
Like-named read-outs stand apart in the source and are kept apart here.

How the values were obtained:
Format in all cases: in vivo
[1] = system: blackgrass (Alopecurus myosuroides); assay: Test B postemergence; conditions: Alopecurus myosuroides, post-emergence
Summary of the method: (§1)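 Pre: compound (non-phytotoxic solvent + surfactant) applied to freshly planted seeds. Post: same formulation sprayed on 2–18 cm plants, 1- to 4-leaf. Readout: visual control rating 0–100 vs controls, 13–15 d, greenhouse.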

[2] = system: wild oat (Avena fatua); assay: Test B postemergence; conditions: Avena fatua, post-emergence
Summary of the method: as §1

[3] = system: velvetleaf (Abutilon theophrasti); assay: Test B pre/postemergence; conditions: Abutilon theophrasti; for pest or weed control at 62 g/ha: 62 g ai/ha; for pest or weed control at 250 g/ha: 250 g ai/ha
Summary of the method: as §1

[4] = system: crabgrass (Digitaria sanguinalis); assay: Test B pre/postemergence; conditions: Digitaria sanguinalis; for pest or weed control at 62 g/ha: 62 g ai/ha; for pest or weed control at 250 g/ha: 250 g ai/ha
Summary of the method: as §1

[5] = system: pigweed (Amaranthus retroflexus); assay: Test B pre/postemergence; conditions: Amaranthus retroflexus; for pest or weed control at 62 g/ha: 62 g ai/ha; for pest or weed control at 250 g/ha: 250 g ai/ha
Summary of the method: as §1

[6] = system: wheat (Triticum aestivum); assay: Test B pre/postemergence; conditions: Triticum aestivum; for plant injury at 62 g/ha: 62 g ai/ha; for plant injury at 250 g/ha: 250 g ai/ha
Summary of the method: as §1

[7] = system: barnyardgrass (Echinochloa crus-galli); assay: Test B pre/postemergence; conditions: Echinochloa crus-galli; for pest or weed control at 62 g/ha: 62 g ai/ha; for pest or weed control at 250 g/ha: 250 g ai/ha
Summary of the method: as §1

[8] = system: morningglory (Ipomoea coccinea); assay: Test B pre/postemergence; conditions: Ipomoea; for pest or weed control at 62 g/ha: 62 g ai/ha; for pest or weed control at 250 g/ha: 250 g ai/ha
Summary of the method: as §1

[9] = system: lambsquarters (Chenopodium album); assay: Test B pre/postemergence; conditions: Chenopodium album; for pest or weed control at 62 g/ha: 62 g ai/ha; for pest or weed control at 250 g/ha: 250 g ai/ha
Summary of the method: as §1

[10] = system: giant foxtail (Setaria faberii); assay: Test B pre/postemergence; conditions: Setaria faberi; for pest or weed control at 62 g/ha: 62 g ai/ha; for pest or weed control at 250 g/ha: 250 g ai/ha
Summary of the method: as §1

[11] = system: Surinam grass (Brachiaria decumbens); assay: Test B pre/postemergence; conditions: Urochloa decumbens; for pest or weed control at 62 g/ha: 62 g ai/ha; for pest or weed control at 250 g/ha: 250 g ai/ha
Summary of the method: as §1

[12] = system: cocklebur (Xanthium strumarium); assay: Test B pre/postemergence; conditions: Xanthium strumarium; for pest or weed control at 62 g/ha: 62 g ai/ha; for pest or weed control at 250 g/ha: 250 g ai/ha
Summary of the method: as §1

[13] = system: corn (Zea mays); assay: Test B pre/postemergence; conditions: Zea mays; for Corn plant response rating (crop injury, 0 = no effect, 100 = complete kill) at 250 g/ha: 250 g ai/ha
Summary of the method: as §1

[14] = system: duck salad (Heteranthera limosa); assay: Test B flooded paddy test; conditions: Heteranthera limosa, Flood, 1000 g ai/ha; scale 0 to 100; read-out: Plant response rating, Ducksalad
Summary of the method: (§2)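 Plants were grown to the 2-leaf stage before treatment, then kept in a greenhouse for 13 to 15 days. Injury was rated visually against untreated controls on a 0 to 100 scale, where 0 is no effect and 100 is complete control.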

[15] = system: barnyardgrass (Echinochloa crus-galli); assay: Test B flooded paddy test; conditions: Echinochloa crus-galli, Flood, 1000 g ai/ha; scale 0 (no effect) to 100 (complete control); read-out: Plant response rating, Barnyardgrass
Summary of the method: as §2

[16] = system: umbrella sedge (Cyperus difformis); assay: Test B flooded paddy test; conditions: Cyperus difformis, Flood, 1000 g ai/ha; scale 0 to 100; read-out: Plant response rating, Sedge, Umbrella
Summary of the method: as §2

[17] = system: rice (Oryza sativa); assay: Test B flooded paddy test; conditions: Oryza sativa, Flood, 1000 g ai/ha; scale 0 to 100; read-out: Plant response rating, Rice
Summary of the method: as §2

[18] = pre-emergence, Preemergence, scale 0 to 100 (0 no effect, 100 complete control), read-out: Plant response rating, Wheat
[19] = pre-emergence, Preemergence, scale 0 to 100 (0 no effect, 100 complete control), read-out: Plant response rating, Barnyardgrass

Compound `CCOC(=O)c1nc(C2CC2)nc(N)c1Cl` [Compound 4, ethyl 6-amino-5-chloro-2-cyclopropyl-4-pyrimidinecarboxylate] has a pest or weed control at 62 g/ha ([1]; 62 g ai/ha, scale 0 to 100 (0 no effect, 100 complete control), read-out: Blackgrass plant response rating) of 70%, a pest or weed control at 250 g/ha ([1]; 250 g ai/ha, scale 0 to 100, read-out: Plant response rating, Blackgrass) of 90% and a pest or weed control at 62 g/ha ([2]; 62 g ai/ha, scale 0 to 100 (0 no effect, 100 complete control), read-out: Oat, Wild plant response rating) of 50%. For the same compound, the pest or weed control at 250 g/ha ([2]; 250 g ai/ha, scale 0 to 100, read-out: Plant response rating, Oat, Wild) was 80%, the pest or weed control at 62 g/ha ([3]; post-emergence, Postemergence, scale 0 to 100 (0 no effect, 100 complete control), read-out: Velvetleaf plant response rating) was 70% and the pest or weed control at 250 g/ha ([3]; post-emergence, Postemergence, scale 0 to 100, read-out: Plant response rating, Velvetleaf) was 100%. It also gave a pest or weed control at 62 g/ha ([3]; pre-emergence, Preemergence, scale 0 to 100, 0 no effect, 100 complete control, read-out: Plant response rating, Velvetleaf) of 80%, a pest or weed control at 250 g/ha ([3]; pre-emergence, Preemergence, scale 0 to 100 (0 no effect, 100 complete control), read-out: Plant response rating, Velvetleaf) of 90% and a pest or weed control at 62 g/ha ([4]; post-emergence, Postemergence, scale 0 to 100 (0 no effect, 100 complete control), read-out: Crabgrass plant response rating) of 80%. It also gave a pest or weed control at 250 g/ha ([4]; post-emergence, Postemergence, scale 0 to 100, read-out: Plant response rating, Crabgrass) of 90%, a pest or weed control at 62 g/ha ([4]; pre-emergence, Preemergence, scale 0 to 100, 0 no effect, 100 complete control, read-out: Plant response rating, Crabgrass) of 70% and a pest or weed control at 250 g/ha ([4]; pre-emergence, Preemergence, scale 0 to 100 (0 no effect, 100 complete control), read-out: Plant response rating, Crabgrass) of 90%. The pest or weed control at 62 g/ha ([5]; post-emergence, Postemergence, scale 0 to 100 (0 no effect, 100 complete control), read-out: Pigweed plant response rating) was 100%, the pest or weed control at 250 g/ha ([5]; post-emergence, Postemergence, scale 0 to 100, read-out: Plant response rating, Pigweed) was 100% and the pest or weed control at 62 g/ha ([5]; pre-emergence, Preemergence, scale 0 to 100, 0 no effect, 100 complete control, read-out: Plant response rating, Pigweed) was 90%. For the same compound, the pest or weed control at 250 g/ha ([5]; pre-emergence, Preemergence, scale 0 to 100 (0 no effect, 100 complete control), read-out: Plant response rating, Pigweed) was 100%, the plant injury at 62 g/ha ([6]; post-emergence, Postemergence, scale 0 to 100 (0 no effect, 100 complete control), read-out: Wheat plant response rating) was 40% and the plant injury at 250 g/ha ([6]; post-emergence, Postemergence, scale 0 to 100, read-out: Plant response rating, Wheat) was 80%. For the same compound, the plant injury at 62 g/ha [6, 18] was 50%, the plant injury at 250 g/ha [6, 18] was 70% and the pest or weed control at 62 g/ha ([7]; post-emergence, Postemergence, scale 0 to 100 (0 no effect, 100 complete control), read-out: Barnyardgrass plant response rating) was 70%. For the same compound, the pest or weed control at 250 g/ha ([7]; post-emergence, Postemergence, scale 0 to 100, read-out: Plant response rating, Barnyardgrass) was 90%, the pest or weed control at 62 g/ha [7, 19] was 30% and the pest or weed control at 250 g/ha [7, 19] was 90%. It also gave a pest or weed control at 62 g/ha ([8]; post-emergence, Postemergence, scale 0 to 100 (0 no effect, 100 complete control), read-out: Morningglory plant response rating) of 90%, a pest or weed control at 250 g/ha ([8]; post-emergence, Postemergence, scale 0 to 100, read-out: Plant response rating, Morningglory) of 100% and a pest or weed control at 62 g/ha ([8]; pre-emergence, Preemergence, scale 0 to 100, 0 no effect, 100 complete control, read-out: Plant response rating, Morningglory) of 60%. It also gave a pest or weed control at 250 g/ha ([8]; pre-emergence, Preemergence, scale 0 to 100 (0 no effect, 100 complete control), read-out: Plant response rating, Morningglory) of 100%, a pest or weed control at 62 g/ha ([9]; post-emergence, Postemergence, scale 0 to 100 (0 no effect, 100 complete control), read-out: Lambsquarters plant response rating) of 100% and a pest or weed control at 250 g/ha ([9]; post-emergence, Postemergence, scale 0 to 100, read-out: Plant response rating, Lambsquarters) of 100%. It also gave a pest or weed control at 62 g/ha ([9]; pre-emergence, Preemergence, scale 0 to 100, 0 no effect, 100 complete control, read-out: Plant response rating, Lambsquarters) of 90%, a pest or weed control at 250 g/ha ([9]; pre-emergence, Preemergence, scale 0 to 100 (0 no effect, 100 complete control), read-out: Plant response rating, Lambsquarters) of 100% and a pest or weed control at 62 g/ha ([10]; post-emergence, Postemergence, scale 0 to 100 (0 no effect, 100 complete control), read-out: Foxtail, Giant plant response rating) of 80%. The pest or weed control at 250 g/ha ([10]; post-emergence, Postemergence, scale 0 to 100, read-out: Plant response rating, Foxtail, Giant) was 90%, the pest or weed control at 250 g/ha ([10]; pre-emergence, Preemergence, scale 0 to 100 (0 no effect, 100 complete control), read-out: Plant response rating, Foxtail, Giant) was 80% and the pest or weed control at 62 g/ha ([10]; pre-emergence, Preemergence, scale 0 to 100, 0 no effect, 100 complete control, read-out: Plant response rating, Foxtail, Giant) was 10%. It also gave a pest or weed control at 62 g/ha ([11]; post-emergence, Postemergence, scale 0 to 100 (0 no effect, 100 complete control), read-out: Surinam Grass plant response rating) of 90%, a pest or weed control at 250 g/ha ([11]; post-emergence, Postemergence, scale 0 to 100, read-out: Plant response rating, Surinam Grass) of 90% and a pest or weed control at 250 g/ha ([11]; pre-emergence, Preemergence, scale 0 to 100 (0 no effect, 100 complete control), read-out: Plant response rating, Surinam Grass) of 90%. For the same compound, the pest or weed control at 62 g/ha ([11]; pre-emergence, Preemergence, scale 0 to 100, 0 no effect, 100 complete control, read-out: Plant response rating, Surinam Grass) was 40%, the pest or weed control at 62 g/ha ([12]; post-emergence, Postemergence, scale 0 to 100 (0 no effect, 100 complete control), read-out: Cocklebur plant response rating) was 90% and the pest or weed control at 250 g/ha ([12]; post-emergence, Postemergence, scale 0 to 100, read-out: Plant response rating, Cocklebur) was 100%. It also gave a pest or weed control at 62 g/ha ([12]; pre-emergence, Preemergence, scale 0 to 100, 0 no effect, 100 complete control, read-out: Plant response rating, Cocklebur) of 80%, a pest or weed control at 250 g/ha ([12]; pre-emergence, Preemergence, scale 0 to 100 (0 no effect, 100 complete control), read-out: Plant response rating, Cocklebur) of 100% and a plant injury at 62 g/ha ([13]; post-emergence, Postemergence, 62 g ai/ha, scale 0 to 100 (0 no effect, 100 complete control), read-out: Corn plant response rating) of 50%. It also gave a Corn plant response rating (crop injury, 0 = no effect, 100 = complete kill) at 250 g/ha ([13]; post-emergence, Postemergence, scale 0 to 100) of 90%, a Corn plant response rating (crop injury, 0 = no effect, 100 = complete kill) at 62 g/ha ([13]; pre-emergence, Preemergence, 62 g ai/ha, scale 0 to 100, 0 no effect, 100 complete control) of 0% and a Corn plant response rating (crop injury, 0 = no effect, 100 = complete kill) at 250 g/ha ([13]; pre-emergence, Preemergence, scale 0 to 100 (0 no effect, 100 complete control)) of 80%. The pest or weed control at 1000 g/ha [14] was 100%, the pest or weed control at 1000 g/ha [15] was 90% and the pest or weed control at 1000 g/ha [16] was 80%. The plant injury at 1000 g/ha [17] was 80%.
